According to patent US8722720B2, “Imidazole derivatives as IDO inhibitors” (NewLink Genetics Corporation, priority 2010, dated 2014):
Where two headings read alike, the source gives them in different places. Values belong to the compound of their own block, whether it stands above or below them.

Target: T1, purified human IDO protein (Homo sapiens, UniProt P14902)
T1 construct: 2 extra amino acids (linker from the BglII cloning site of pQE70); made in house; host or cells: E. coli M15(pREP4) with plasmid pQE70-hIDO
Assay: Enzymatic IDO assay (kynurenine production, absorbance at 480 nm)
Type: biochemical
Details: values reported in ranges
Procedure, shortened: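 Inhibitors (final 1 mM to 5 nM, in 50 mM potassium phosphate) preincubated with enzyme 5 min at 25 °C, then 200 μM L-tryptophan added, 15 min at 37 °C. TCA stop and 60 °C hydrolysis to kynurenine, detected with p-dimethylaminobenzaldehyde at 480 nm. IC50 by nonlinear regression.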

[1] = recombinant human IDO, read-out: hIDO IC50
[2] = hIDO IC50, recombinant human IDO

T1 sequence (P14902 whole entry P110S/E119G): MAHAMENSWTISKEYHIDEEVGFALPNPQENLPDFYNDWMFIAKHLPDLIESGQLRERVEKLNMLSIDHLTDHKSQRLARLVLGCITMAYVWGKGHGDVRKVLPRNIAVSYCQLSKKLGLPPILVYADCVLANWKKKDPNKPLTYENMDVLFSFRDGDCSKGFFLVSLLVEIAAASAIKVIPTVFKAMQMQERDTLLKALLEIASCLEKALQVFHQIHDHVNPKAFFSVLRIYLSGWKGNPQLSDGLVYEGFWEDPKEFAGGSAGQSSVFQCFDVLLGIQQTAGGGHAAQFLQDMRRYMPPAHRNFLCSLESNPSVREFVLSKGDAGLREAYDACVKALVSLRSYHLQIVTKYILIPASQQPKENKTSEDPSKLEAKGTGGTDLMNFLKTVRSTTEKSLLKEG

Structure (SMILES): c1nc(-c2ccc3c(c2)OCO3)c[nH]1 [compound 955, 4-(benzo[d][1,3]dioxol-5-yl)-1H-imidazole]
IC50 [1]: > 100 µM

Structure (SMILES): Oc1cccc(OCCN2CCOCC2)c1-c1cnc[nH]1 [compound 1231, 2-(1H-imidazol-5-yl)-3-(2-morpholinoethoxy) phenol]
IC50 [1]: 10 to 100 µM

Structure (SMILES): c1nc(-c2ccc3[nH]ccc3c2)c[nH]1 [compound 949, 5-(1H-imidazol-4-yl)-1H-indole]
IC50 [1]: > 100 µM

Structure (SMILES): Oc1cccc(OCCc2ccc(Cl)cc2)c1-c1cnc[nH]1 [compound 1148, 3-(4-chlorophenethoxy)-2-(1H-imidazol-5-yl) phenol]
IC50 [1]: 1 to 10 µM

Structure (SMILES): CN(C)C(=O)Oc1ccc(Cl)cc1-c1c[nH]cn1 [compound 1076, 4-chloro-2-(1H-imidazol-4-yl)phenyl dimethylcarbamate]
IC50 [2]: > 100 µM

Structure (SMILES): O=C(Cc1ccccc1)Nc1ccc(CCOc2ccccc2-c2cnc[nH]2)cc1 [compound 1102, N-(4-(2-(2-(1H-imidazol-4-yl)phenoxy)ethyl)phenyl)-2-phenylacetamide]
IC50 [1]: < 1 µM

Structure (SMILES): CC(C)(C)CCOc1ccc(O)cc1-c1c[nH]cn1 [compound 1110, 4-(3,3-dimethylbutoxy)-3-(1H-imidazol-4-yl) phenol]
IC50 [1]: 10 to 100 µM

Structure (SMILES): Clc1cccc(-c2cnc[nH]2)c1OCCC1CCCCC1 [compound 1177, 5-(3-chloro-2-(2-cyclohexylethoxy)phenyl)-1H-imidazole]
IC50 [1]: 1 to 10 µM

Structure (SMILES): Oc1ncccc1-c1c[nH]cn1 [compound 1015, 3-(1H-imidazol-4-yl)pyridin-2-ol]
IC50 [1]: > 100 µM

Structure (SMILES): CC(=O)Nc1ccc(CCOc2cccc(O)c2-c2cnc[nH]2)cc1 [compound 1232, N-(4-(2-(3-hydroxy-2-(1H-imidazol-5-yl)phenoxy)ethyl)phenyl)acetamide]
IC50 [1]: 10 to 100 µM

Structure (SMILES): c1cc(-c2c[nH]cn2)c2nsnc2c1 [compound 962, 4-(1H-imidazol-4-yl)benzo[c][1,2,5]thiadiazole]
IC50 [1]: 10 to 100 µM

Structure (SMILES): Oc1c(Cl)cc(Cl)c(OCCC2CCCCC2)c1-c1cnc[nH]1 [compound 1086, 4,6-dichloro-3-(2-cyclohexylethoxy)-2-(1H-imidazol-5-yl)phenol]
IC50 [2]: > 100 µM

Structure (SMILES): Oc1c(-c2cnc[nH]2)[nH]c2ccccc12 [compound 1048, 2-(1H-imidazol-5-yl)-1H-indol-3-ol]
IC50 [1]: > 100 µM

Structure (SMILES): Oc1cccc(OCCc2cccc(Cl)c2)c1-c1cnc[nH]1 [compound 1160, 3-(3-chlorophenethoxy)-2-(1H-imidazol-5-yl) phenol]
IC50 [1]: 1 to 10 µM

Structure (SMILES): O=C(Oc1ccc(Cl)cc1-c1c[nH]cn1)N1CCCC1 [compound 1087, 4-chloro-2-(1H-imidazol-4-yl)phenyl pyrrolidine-1-carboxylate]
IC50 [1]: > 100 µM

Structure (SMILES): CC(C)N(C(=O)Oc1ccc(Cl)cc1-c1c[nH]cn1)C(C)C [compound 1085, 4-chloro-2-(1H-imidazol-4-yl)phenyl diisopropylcarbamate]
IC50 [1]: > 100 µM

Structure (SMILES): O=C(CC1CCOCC1)Nc1ccc(CCOc2ccccc2-c2c[nH]cn2)cc1Cl [compound 1297, N-(4-(2-(2-(1H-imidazol-4-yl)phenoxy)ethyl)-2-chlorophenyl)-2-(tetrahydro-2H-pyran-4-yl)acetamide]
IC50 [1]: 10 to 100 µM

Structure (SMILES): Oc1ccc(Cl)cc1-c1cncn1-c1cccnc1 [compound 1122, 4-chloro-2-(1-(pyridin-3-yl)-1H-imidazol-5-yl)phenol]
IC50 [1]: 10 to 100 µM

Structure (SMILES): CC(=O)NC(C(=O)Nc1ccc(CCOc2ccccc2-c2c[nH]cn2)c(Cl)c1)C1CCOCC1 (stereo not shown) [compound 1337, N-(4-(2-(2-(1H-imidazol-4-yl)phenoxy)ethyl)-3-chlorophenyl)-2-acetamido-2-(tetrahydro-2H-pyran-4-yl)acetamide]
IC50 [1]: < 1 µM

Structure (SMILES): Brc1ccc(OCCC2CCCCC2)c(-c2c[nH]cn2)c1 [compound 1016, 4-(5-bromo-2-(2-cyclohexylethoxy)phenyl)-1H-imidazole]
IC50 [1]: 10 to 100 µM

Further lines, results first:

IC50 [1]: 10 to 100 µM
Structure (SMILES): c1ccc(-c2c[nH]cn2)c(OCc2cscn2)c1 [compound 1289, 4-((2-(1H-imidazol-4-yl)phenoxy)methyl) thiazole]

IC50 [1]: 1 to 10 µM
Structure (SMILES): O=C(Cc1cscn1)Nc1ccc(CCOc2ccccc2-c2c[nH]cn2)cc1 [compound 1226, N-(4-(2-(2-(1H-imidazol-4-yl)phenoxy)ethyl)phenyl)-2-(thiazol-4-yl)acetamide]

IC50 [1]: > 100 µM
Structure (SMILES): NC(CCc1ccccc1-c1c[nH]cn1)C(=O)O (stereo not shown) [compound 1050, lithium 4-(2-(1H-imidazol-4-yl)phenyl)-2-amino-butanoate]

IC50 [1]: 10 to 100 µM
Structure (SMILES): CC(O)(COc1ccccc1-c1c[nH]cn1)c1cccs1 (stereo not shown) [compound 977, 1-(2-(1H-imidazol-4-yl)phenoxy)-2-(thiophen-2-yl)propan-2-ol]

IC50 [1]: < 1 µM
Structure (SMILES): N[C@@H]1CCCC[C@H]1NC(=O)Nc1ccc(CCOc2ccccc2-c2c[nH]cn2)c(Cl)c1 (racemic) [compound 1361, 1-(4-(2-(2-(1H-imidazol-4-yl)phenoxy)ethyl)-3-chlorophenyl)-3-(±(1R,2R)-2-aminocyclohexyl)urea]

IC50 [1]: 10 to 100 µM
Structure (SMILES): CC(=O)NCc1cccc(COc2ccccc2-c2c[nH]cn2)c1 [compound 958, N-(3-((2-(1H-imidazol-4-yl)phenoxy)methyl)benzyl)acetamide]

IC50 [1]: 10 to 100 µM
Structure (SMILES): CC(Oc1ccccc1-c1c[nH]cn1)c1ccccc1 (stereo not shown) [compound 1045, 4-(2-(1-phenylethoxy)phenyl)-1H-imidazole]

IC50 [1]: > 100 µM
Structure (SMILES): O=C(O)c1ccccc1CCOc1ccccc1-c1c[nH]cn1 [compound 1325, 2-(2-(2-(1H-imidazol-4-yl)phenoxy)ethyl) benzoic acid]

IC50 [1]: 1 to 10 µM
Structure (SMILES): CC(C)(C)CC(=O)Nc1ccc(CCOc2ccccc2-c2c[nH]cn2)cc1 [compound 1103, N-(4-(2-(2-(1H-imidazol-4-yl)phenoxy)ethyl)phenyl)-3,3-dimethylbutanamide]

IC50 [1]: 1 to 10 µM
Structure (SMILES): O=C(Nc1ccc(CCOc2ccccc2-c2c[nH]cn2)c(Cl)c1)C1CCCCN1 (stereo not shown) [compound 1344, N-(4-(2-(2-(1H-imidazol-4-yl)phenoxy)ethyl)-3-chlorophenyl)piperidine-2-carboxamide]

IC50 [1]: < 1 µM
Structure (SMILES): O=C(CC1CCOCC1)Nc1ccc(CCOc2ccccc2-c2c[nH]cn2)c(F)c1 [compound 1295, N-(4-(2-(2-(1H-imidazol-4-yl)phenoxy)ethyl)-3-fluorophenyl)-2-(tetrahydro-2H-pyran-4-yl)acetamide]

IC50 [1]: 10 to 100 µM
Structure (SMILES): Fc1ccc(COc2ccccc2-c2c[nH]cn2)cc1 [compound 1022, 4-(2-(4-fluorobenzyloxy)phenyl)-1H-imidazole]

IC50 [1]: 1 to 10 µM
Structure (SMILES): O=C(Cc1cncnc1)Nc1ccc(CCOc2ccccc2-c2c[nH]cn2)cc1 [compound 1239, N-(4-(2-(2-(1H-imidazol-4-yl)phenoxy)ethyl)phenyl)-2-(pyrimidin-5-yl)acetamide]

IC50 [1]: 1 to 10 µM
Structure (SMILES): CC(COc1ccccc1-c1c[nH]cn1)c1coc2ccccc12 (stereo not shown) [compound 1031, 4-(2-(2-(benzofuran-3-yl)propoxy)phenyl)-1H-imidazole]

IC50 [1]: 1 to 10 µM
Structure (SMILES): CC(C)(C)OC(=O)Nc1ccc(CCOc2ccccc2-c2c[nH]cn2)cc1 [compound 1046, tert-butyl 4-(2-(2-(1H-imidazol-4-yl)phenoxy)ethyl)phenylcarbamate]

IC50 [1]: 10 to 100 µM
Structure (SMILES): c1csc(CCOc2ccccc2-c2c[nH]cn2)c1 [compound 1198, 4-(2-(2-(thiophen-2-yl)ethoxy)phenyl)-1H-imidazole]

IC50 [1]: 10 to 100 µM
Structure (SMILES): BrCCOc1ccccc1-c1c[nH]cn1 [compound 1243, 4-(2-(2-bromoethoxy)phenyl)-1H-imidazole]
